# Legend:
# [1] = test system: caspases-3 and -8 proteases; conditions: cited from earlier work
# [2] = healthy young or old adults; cited from earlier work
# [3] = test system: ubiquitin-proteosome proteolytic pathway; conditions: muscle protein catabolism stimulated by PIF, LPS and angiotensin II; cited from earlier work
# BNIP3 = BNIP3 gene expression in human primary adipocytes; type: cell-based; conditions: 1 mM HMB, 96 hours, n=3, p<0.05
# Source text: (§1) These transcription factors represent two different autophagy pathways.
# mTOR = conditions: in vitro, through mTOR phosphorylation; cited from earlier work
# Primary preadipocytes = assay: Dual-labeled LC3 (DsRed/GFP) imaging of autophagy in primary preadipocytes; type: cell-based; conditions: 1 mM HMB, 4 days
# Protocol: A primary adipocyte cell based assay for visualizing HMB activated lipophagy was developed. Primary preadipocytes were cultured on glass coverslips and treated with HMB for four days in regular growth medium. Cells were fixed and mounted with DAPI-containing medium and imaged with 60× objective. Autophagy vesicles are in red with degradation of green signal indicative of autophagy activation (FIG. 7). Nuclei are stained in blue (FIG. 7). A dual-labeled LC3 retroviral expression contrast was used to generate recombinant retrovirus using 293GPG cells. Primary preadipocytes were infected with the viral particles and, starting with four days after infection, selected with geneticin for two weeks prior to the imaging experiments. The LC3 fusion construct labels the autophagosomes and harbors dual signals; DsRed and GFP green probes. In the basal state there is co-localization of the green and red signals resulting in a yellow signal in the merged panel (FIG. 7 top panel with no HMB). When autophagy is activated, the GFP probe is cleaved from LC3 by ATG4 and degraded resulting in loss of the green signal and in absence of the co-localization in the merged panel. The initial studies used preadipocytes infected with the LC3 containing retrovirus and treated or not treated for 4 days with 1 mM HMB (FIG. 7, top: no HMB, bottom +HMB).
# [4] = test system: autophagy related protein (ATG7); assay: ATG7 gene expression in differentiated adipocytes; type: cell-based; conditions: HMB, 96 hours, n=6, p<0.05
# Protocol: (§2) Differentiated adipocytes were treated with HMB in regular growth medium for determination of lipolysis and gene expression. The adipocytes were pretreated for 48 hours with 1 mM HMB (n=4), resulting in basal and 1 uM isoproterenol stimulated lipolysis (FIG. 3A).
# muscle cells (HSMM) = assay: Phosphor protein array, HSMM muscle cells; type: cell-based, human; conditions: HMB-treated HSMM muscle cells
# Protocol: (§3) Lysates from HMB-treated muscle (HSMM) and adipocytes (SGBS) were analyzed using a phosphor protein array. Many mTOR targets were regulated in both cell system (FIG. 8). Increases in CREB phosphorylation on serine 133 on a signaling protein array using SGBS adipocytes treated HMB was seen (FIG. 8). Thus, the activating phosphorylation of CREB at S133 mediates induction of TFEB in these adipocytes and this pathway results in the upregulation of autophagy.
# ATG7 = ATG7 gene expression (qPCR) in primary human skeletal muscle myotubes; type: cell-based; conditions: HMB 1 mM, 4 days, HSMM myotubes, qPCR normalized to 36B4, n=6
# Protocol: Cultured primary human skeletal muscle cells (HSMM, Lonza) were grown to confluence and differentiated into myotubes. The cells were then supplemented with HMB (1 mM) for 4 days (n=6 for treatment or control groups) with a medium change every other day. Gene expression (mRNA) was determined at the end of the treatment by quantitative polymerase chain reaction (qPCR). For normalization, the mRNA signal was adjusted to the co-amplified signal of the ribosomal protein 36B4.
# TFEB = TFEB gene expression in human primary adipocytes; type: cell-based; conditions: 1 mM HMB, 96 hours, n=3, p<0.05
# Source text: as §1
# AMPK [5] = assay: AMPK activation (phosphorylated AMPK substrates, total AMPK) in primary human adipocytes; type: cell-based; conditions: 1 mM HMB, 96 hours
# Protocol: A line of subcutaneous preadipocytes isolated from normal humans (non-diabetic controls) was used. These cells differentiate well (see FIG. 4) and provide a good in vitro model for studying effects of HMB on lipophagy. […] Differentiated adipocytes (14 days post confluence) were treated for 4 days with 1 mM HMB supplemented in normal growth medium. Lysates were probed with an antibody (Cell Signal Technologies) directed against AMPK phosphorylated substrates (consensus motif LCRXXpS/pT) to obtain a broad evaluation of AMPK activation and total AMPK levels were also measured. […] The cells were lysed and probed for phosphorylated targets of AMPK and for total AMPK levels (FIG. 5B).
# [6] = test system: adipose triglyceride lipase (ATGL); assay: ATGL gene expression in differentiated adipocytes; type: cell-based; conditions: HMB, 96 hours, n=6, p<0.05
# Protocol: as §2
# [7] = after HMB is fed; cited from earlier work
# [8] = test system: plasma CPK (creatine phosphokinase); conditions: following intense exercise, within the first 48 hrs of supplementation; cited from earlier work
# [9] = test system: differentiated adipocytes; assay: Lipolysis in differentiated adipocytes; type: cell-based; conditions: pretreated 48 hours with 1 mM HMB; basal and 1 uM isoproterenol; n=4
# Protocol: as §2
# AMPK [10] = assay: AMPK activation in HEK293 cells; type: cell-based; conditions: similarly treated HEK293 cells (data not shown)
# adipocytes (SGBS) = assay: Phosphor protein array, SGBS adipocytes; type: cell-based; conditions: HMB-treated SGBS adipocytes
# Protocol: as §3
# [11] = compared with CaHMB; cited from earlier work
structure (smiles),measurement,setting,value
"CC(C)(O)CC(=O)O [HMB, β-hydroxy-β-methylbutyric acid]",activation of caspases-3 and -8 proteases,[1],attenuates
same,side effects,[2],no side effects
same,proteolysis,[3],decreases
same,BNIP3 mRNA levels,BNIP3,increased
same,protein synthesis,mTOR,stimulates
same,size of autophagic puncta,Primary preadipocytes,significant increases
same,LC3 GFP green signal and green/red co-localization,Primary preadipocytes; preadipocytes infected with LC3 retrovirus,Loss of green signals and absence of green/red co-localization
same,ATG7 gene expression,[4],significantly increased
same,RSK 1/2/3 phosphorylation at the mTOR site (S473),muscle cells (HSMM),significant reduction
same,activation of STAT3,muscle cells (HSMM),reduced activation
same,activation of p53,muscle cells (HSMM),reduced activation
same,mTOR activity,muscle cells (HSMM),inhibition
same,p70 S6 kinase phosphorylation at several threonine p-sites,muscle cells (HSMM),significant reduction
same,ATG7 gene expression (mRNA),ATG7,Significant (p<0.01) upregulation
same,TFEB mRNA levels,TFEB,increased
same,total AMPK levels,AMPK [5],not significantly changed
same,AMPK substrate phosphorylation intensity,"AMPK [5]; densitometry, n=3, p<0.01",significant increase
same,ATGL gene expression,[6],significantly increased
same,loss of HMB to urine,[7],20-50%
same,muscle damage measured by elevated plasma CPK,[8],reduced
same,lipolysis (basal and isoproterenol stimulated),[9],activates
same,AMPK substrate phosphorylation increase,AMPK [10],not observed
same,CREB phosphorylation (serine 133),adipocytes (SGBS),enhanced
same,HSP27 phosphorylation,adipocytes (SGBS),enhanced
same,Yes kinase phosphorylation,adipocytes (SGBS),Enhanced
same,activation of p53,adipocytes (SGBS),Reduced activation
same,activation of pSTAT3,adipocytes (SGBS),Reduced activation
same,activity of the mTOR pathway,adipocytes (SGBS),Reduced activity
"CC(C)(O)CC(=O)O [HMB free acid, β-hydroxy-β-methylbutyric acid]",absorption,[11],absorbed quicker
same,tissue clearance,[11],greater tissue clearance
